Data on 1 compound can be found in ChEMBL document CHEMBL5052820, “Organic compounds” (2019).

Where a SMILES comes first, the peptide text is derived from it.

The nature of this assay: Activation of mouse GPR15 stably expressed in CHO cells expressing Aequorin and Galpha16 measured by luminiscence assay. In kind it is cell-based.

Broadly, the EC50 is the concentration giving half of the maximal effect. Read a high EC50 as a need for much substance. Regarding `CC(C)C[C@H](NC(=O)[C@H](CCC(N)=O)NC(=O)[C@@H]1CCCN1C(=O)[C@H](CCCCN)NC(=O)[C@@H](N)CCC(N)=O)C(=O)N[C@@H](Cc1c[nH]c2ccccc12)C(=O)N[C@H](C(=O)N[C@H](C(=O)N1CCC[C@H]1C(=O)NCC(=O)N[C@@H](C)C(=O)N[C@@H](CC(C)C)C(=O)N1CCC[C@H]1C(=O)N[C@@H](CCC(N)=O)C(=O)N[C@H](C(=O)O)C(C)C)C(C)C)C(C)C` (H-QKPQLWVVPGALPQV-OH), the EC50 was 4.02 µM.
